Results published in ChEMBL document CHEMBL2321769, “Regioselective synthesis of 5- and 6-methoxybenzimidazole-1,3,5-triazines as inhibitors of phosphoinositide 3-kinase” (Bioorg Med Chem Lett, 2013).
pIC50: −log10 of the molar value.

How the values were obtained:
[1] = target: Phosphatidylinositol 4,5-bisphosphate 3-kinase catalytic subunit alpha isoform (Homo sapiens, UniProt P42336); assay: Inhibition of PI3Kalpha (unknown origin) expressed in SF21 cells using phosphatidylinositol as substrate after 60 mins by Kinase-Glo assay
[2] = target: T1, Phosphatidylinositol 4,5-bisphosphate 3-kinase catalytic subunit delta isoform (Homo sapiens, UniProt O00329); assay: Inhibition of PI3Kdelta (unknown origin) expressed in SF21 cells using phosphatidylinositol as substrate after 60 mins by Kinase-Glo assay
T1 sequence (O00329 whole entry): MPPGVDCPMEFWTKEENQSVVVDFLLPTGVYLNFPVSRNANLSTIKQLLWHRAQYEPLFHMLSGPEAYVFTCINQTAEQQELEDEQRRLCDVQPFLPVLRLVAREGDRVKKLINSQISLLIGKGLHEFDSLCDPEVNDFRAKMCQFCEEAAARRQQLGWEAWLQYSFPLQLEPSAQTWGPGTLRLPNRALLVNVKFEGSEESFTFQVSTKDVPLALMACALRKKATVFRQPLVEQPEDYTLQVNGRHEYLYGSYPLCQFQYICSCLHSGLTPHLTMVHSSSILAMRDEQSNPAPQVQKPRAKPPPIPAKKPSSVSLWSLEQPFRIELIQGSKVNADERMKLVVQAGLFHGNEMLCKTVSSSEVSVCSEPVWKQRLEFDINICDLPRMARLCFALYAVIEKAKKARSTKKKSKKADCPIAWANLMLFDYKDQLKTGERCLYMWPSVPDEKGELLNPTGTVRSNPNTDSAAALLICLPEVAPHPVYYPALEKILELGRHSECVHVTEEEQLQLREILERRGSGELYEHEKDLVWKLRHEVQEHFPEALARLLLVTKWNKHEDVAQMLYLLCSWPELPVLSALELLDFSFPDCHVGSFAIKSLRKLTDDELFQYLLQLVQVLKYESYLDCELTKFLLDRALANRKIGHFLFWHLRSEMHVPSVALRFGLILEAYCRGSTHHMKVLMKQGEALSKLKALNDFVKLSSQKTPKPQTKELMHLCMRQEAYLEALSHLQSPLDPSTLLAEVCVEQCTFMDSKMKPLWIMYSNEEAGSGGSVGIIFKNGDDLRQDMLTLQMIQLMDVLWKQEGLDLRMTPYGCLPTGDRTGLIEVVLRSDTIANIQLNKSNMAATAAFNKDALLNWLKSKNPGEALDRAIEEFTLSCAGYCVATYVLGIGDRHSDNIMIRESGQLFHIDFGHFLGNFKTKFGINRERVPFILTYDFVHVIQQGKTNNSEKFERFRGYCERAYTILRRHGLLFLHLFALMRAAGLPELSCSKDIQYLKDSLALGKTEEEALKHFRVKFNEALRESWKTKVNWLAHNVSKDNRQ

[3] = target: Phosphatidylinositol 4,5-bisphosphate 3-kinase catalytic subunit gamma isoform (Homo sapiens, UniProt P48736); assay: Inhibition of PI3Kgamma (unknown origin) expressed in SF21 cells using phosphatidylinositol as substrate after 60 mins by Kinase-Glo assay
[4] = target: Phosphatidylinositol 4,5-bisphosphate 3-kinase catalytic subunit beta isoform (Homo sapiens, UniProt P42338); assay: Inhibition of PI3Kbeta (unknown origin) expressed in SF21 cells using phosphatidylinositol as substrate after 60 mins by Kinase-Glo assay
Chain of Phosphatidylinositol 4,5-bisphosphate 3-kinase catalytic subunit beta isoform (P42338 whole entry, canonical isoform): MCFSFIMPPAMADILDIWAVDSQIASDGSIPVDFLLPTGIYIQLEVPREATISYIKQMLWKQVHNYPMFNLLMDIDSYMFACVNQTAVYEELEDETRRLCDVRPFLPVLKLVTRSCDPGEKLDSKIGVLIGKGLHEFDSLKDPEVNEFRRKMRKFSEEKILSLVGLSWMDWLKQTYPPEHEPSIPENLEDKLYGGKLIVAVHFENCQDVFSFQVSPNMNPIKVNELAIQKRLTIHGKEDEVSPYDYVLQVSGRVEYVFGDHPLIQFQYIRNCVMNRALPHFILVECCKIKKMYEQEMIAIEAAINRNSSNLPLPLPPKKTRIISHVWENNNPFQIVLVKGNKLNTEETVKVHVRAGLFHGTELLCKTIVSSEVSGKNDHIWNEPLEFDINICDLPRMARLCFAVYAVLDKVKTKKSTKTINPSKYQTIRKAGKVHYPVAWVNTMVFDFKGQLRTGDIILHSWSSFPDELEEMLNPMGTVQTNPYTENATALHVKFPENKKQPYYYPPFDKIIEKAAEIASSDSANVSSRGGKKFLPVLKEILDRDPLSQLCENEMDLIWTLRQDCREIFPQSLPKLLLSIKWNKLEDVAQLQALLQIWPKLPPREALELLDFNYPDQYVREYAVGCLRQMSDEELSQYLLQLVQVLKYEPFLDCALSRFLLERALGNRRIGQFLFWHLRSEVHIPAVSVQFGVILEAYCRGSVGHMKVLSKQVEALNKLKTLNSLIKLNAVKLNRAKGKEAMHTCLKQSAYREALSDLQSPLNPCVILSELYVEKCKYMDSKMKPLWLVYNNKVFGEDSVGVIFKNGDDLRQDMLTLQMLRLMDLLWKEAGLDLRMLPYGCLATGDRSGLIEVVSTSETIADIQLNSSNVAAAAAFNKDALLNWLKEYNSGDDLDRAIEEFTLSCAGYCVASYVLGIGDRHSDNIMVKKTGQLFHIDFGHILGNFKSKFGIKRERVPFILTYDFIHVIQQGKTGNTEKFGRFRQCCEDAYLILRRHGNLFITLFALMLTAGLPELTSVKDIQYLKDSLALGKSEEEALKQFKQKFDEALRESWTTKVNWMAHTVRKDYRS

Chain of Phosphatidylinositol 4,5-bisphosphate 3-kinase catalytic subunit gamma isoform (P48736 whole entry, canonical isoform): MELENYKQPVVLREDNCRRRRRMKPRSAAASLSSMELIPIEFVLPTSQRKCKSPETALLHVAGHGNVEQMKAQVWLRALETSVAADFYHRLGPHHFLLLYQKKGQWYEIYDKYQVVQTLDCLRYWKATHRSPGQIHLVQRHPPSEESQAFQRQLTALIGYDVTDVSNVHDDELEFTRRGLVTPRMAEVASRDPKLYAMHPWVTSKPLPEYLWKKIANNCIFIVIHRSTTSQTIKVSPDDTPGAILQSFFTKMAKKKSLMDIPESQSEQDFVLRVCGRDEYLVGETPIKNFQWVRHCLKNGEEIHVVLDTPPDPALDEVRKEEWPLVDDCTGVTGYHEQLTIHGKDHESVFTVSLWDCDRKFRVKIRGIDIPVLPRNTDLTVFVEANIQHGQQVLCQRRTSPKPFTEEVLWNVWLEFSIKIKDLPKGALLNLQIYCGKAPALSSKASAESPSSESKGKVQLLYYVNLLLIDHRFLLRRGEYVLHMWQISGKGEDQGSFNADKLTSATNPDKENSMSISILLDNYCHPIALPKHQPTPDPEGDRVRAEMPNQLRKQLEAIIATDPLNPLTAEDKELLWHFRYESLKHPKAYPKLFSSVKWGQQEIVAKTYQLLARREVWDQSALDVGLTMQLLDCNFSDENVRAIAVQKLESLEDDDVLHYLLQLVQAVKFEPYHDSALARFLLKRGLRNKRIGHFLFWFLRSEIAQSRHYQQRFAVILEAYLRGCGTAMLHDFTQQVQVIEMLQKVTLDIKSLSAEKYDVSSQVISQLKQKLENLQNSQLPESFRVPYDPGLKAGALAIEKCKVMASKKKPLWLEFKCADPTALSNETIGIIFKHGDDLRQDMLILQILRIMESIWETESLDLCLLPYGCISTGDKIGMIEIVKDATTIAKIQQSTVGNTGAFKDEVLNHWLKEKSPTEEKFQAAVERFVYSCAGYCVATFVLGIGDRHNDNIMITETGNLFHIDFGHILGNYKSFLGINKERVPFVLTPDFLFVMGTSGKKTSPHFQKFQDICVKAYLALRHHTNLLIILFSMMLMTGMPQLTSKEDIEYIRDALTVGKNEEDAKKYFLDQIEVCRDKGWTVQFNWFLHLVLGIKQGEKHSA
Chain of Phosphatidylinositol 4,5-bisphosphate 3-kinase catalytic subunit alpha isoform (P42336 whole entry, canonical isoform): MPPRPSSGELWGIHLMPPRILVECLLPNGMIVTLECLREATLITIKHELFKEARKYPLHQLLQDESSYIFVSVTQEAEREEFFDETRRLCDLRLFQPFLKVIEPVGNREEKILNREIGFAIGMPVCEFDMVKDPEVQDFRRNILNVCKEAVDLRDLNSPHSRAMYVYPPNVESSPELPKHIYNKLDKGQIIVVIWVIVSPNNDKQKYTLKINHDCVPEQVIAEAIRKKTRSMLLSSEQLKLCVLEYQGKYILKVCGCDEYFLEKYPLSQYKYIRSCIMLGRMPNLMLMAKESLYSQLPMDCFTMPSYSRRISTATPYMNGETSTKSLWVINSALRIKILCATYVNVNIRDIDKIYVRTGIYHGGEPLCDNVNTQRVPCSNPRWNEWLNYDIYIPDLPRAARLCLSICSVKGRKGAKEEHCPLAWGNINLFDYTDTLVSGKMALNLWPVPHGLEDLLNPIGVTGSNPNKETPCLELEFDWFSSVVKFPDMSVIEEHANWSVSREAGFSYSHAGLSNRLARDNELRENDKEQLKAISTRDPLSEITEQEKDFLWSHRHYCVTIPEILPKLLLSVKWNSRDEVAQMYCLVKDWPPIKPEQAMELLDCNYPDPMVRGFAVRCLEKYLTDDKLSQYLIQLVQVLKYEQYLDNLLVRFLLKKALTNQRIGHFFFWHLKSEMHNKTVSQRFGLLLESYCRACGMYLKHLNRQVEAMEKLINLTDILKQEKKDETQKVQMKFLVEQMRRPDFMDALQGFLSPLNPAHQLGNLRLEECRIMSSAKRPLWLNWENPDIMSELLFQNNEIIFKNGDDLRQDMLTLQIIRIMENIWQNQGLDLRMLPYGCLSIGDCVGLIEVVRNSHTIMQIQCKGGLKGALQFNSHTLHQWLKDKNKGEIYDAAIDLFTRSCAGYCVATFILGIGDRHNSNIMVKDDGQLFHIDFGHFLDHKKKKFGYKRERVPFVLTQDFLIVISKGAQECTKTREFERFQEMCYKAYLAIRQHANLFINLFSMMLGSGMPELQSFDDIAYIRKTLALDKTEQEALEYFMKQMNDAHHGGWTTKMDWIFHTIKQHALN

| SMILES | pIC50 [1] | pIC50 [2] | pIC50 [3] | pIC50 [4] |
| --- | --- | --- | --- | --- |
| COc1ccc2c(c1)nc(C)n2-c1nc(N2CCOCC2)nc(N2CCOCC2)n1 | 5.04 | 5.56 | < 5.00 | < 5.00 |
| COc1ccc2nc(C(F)F)n(-c3nc(N4CCOCC4)nc(N4CCOCC4)n3)c2c1 | 6.43 | 6.96 | < 5.00 | 6.67 |
| Cc1nc2ccccc2n1-c1nc(N2CCOCC2)nc(N2CCOCC2)n1 | 6.54 | 6.73 | 5.73 | 6.28 |
| CC(C)c1nc2ccccc2n1-c1nc(N2CCOCC2)nc(N2CCOCC2)n1 | 6.37 | 6.89 | 5.60 | 6.38 |
| COc1ccc2nc(C)n(-c3nc(N4CCOCC4)nc(N4CCOCC4)n3)c2c1 | 6.08 | 6.34 | < 5.00 | 5.75 |

Now from value to compound:

| pIC50 [1] | pIC50 [2] | pIC50 [3] | pIC50 [4] | SMILES |
| --- | --- | --- | --- | --- |
| 5.98 | 6.37 | < 5.00 | 6.14 | COc1ccc2nc(C(C)C)n(-c3nc(N4CCOCC4)nc(N4CCOCC4)n3)c2c1 |
| < 5.00 | 5.95 | < 5.00 | < 5.00 | COc1ccc2c(c1)nc(C(C)C)n2-c1nc(N2CCOCC2)nc(N2CCOCC2)n1 |
| < 5.30 | < 6.00 | < 5.00 | < 5.00 | COc1ccc2c(c1)nc(C(F)F)n2-c1nc(N2CCOCC2)nc(N2CCOCC2)n1 |
